Target: T1, NcHMA4 (=TcHMA4) (Noccaea caerulescens, UniProt Q69AX6)
T1 construct: 60-70 kD band on Western blot, so possibly processed; no added tag
T1 sequence (Q69AX6 1-1186): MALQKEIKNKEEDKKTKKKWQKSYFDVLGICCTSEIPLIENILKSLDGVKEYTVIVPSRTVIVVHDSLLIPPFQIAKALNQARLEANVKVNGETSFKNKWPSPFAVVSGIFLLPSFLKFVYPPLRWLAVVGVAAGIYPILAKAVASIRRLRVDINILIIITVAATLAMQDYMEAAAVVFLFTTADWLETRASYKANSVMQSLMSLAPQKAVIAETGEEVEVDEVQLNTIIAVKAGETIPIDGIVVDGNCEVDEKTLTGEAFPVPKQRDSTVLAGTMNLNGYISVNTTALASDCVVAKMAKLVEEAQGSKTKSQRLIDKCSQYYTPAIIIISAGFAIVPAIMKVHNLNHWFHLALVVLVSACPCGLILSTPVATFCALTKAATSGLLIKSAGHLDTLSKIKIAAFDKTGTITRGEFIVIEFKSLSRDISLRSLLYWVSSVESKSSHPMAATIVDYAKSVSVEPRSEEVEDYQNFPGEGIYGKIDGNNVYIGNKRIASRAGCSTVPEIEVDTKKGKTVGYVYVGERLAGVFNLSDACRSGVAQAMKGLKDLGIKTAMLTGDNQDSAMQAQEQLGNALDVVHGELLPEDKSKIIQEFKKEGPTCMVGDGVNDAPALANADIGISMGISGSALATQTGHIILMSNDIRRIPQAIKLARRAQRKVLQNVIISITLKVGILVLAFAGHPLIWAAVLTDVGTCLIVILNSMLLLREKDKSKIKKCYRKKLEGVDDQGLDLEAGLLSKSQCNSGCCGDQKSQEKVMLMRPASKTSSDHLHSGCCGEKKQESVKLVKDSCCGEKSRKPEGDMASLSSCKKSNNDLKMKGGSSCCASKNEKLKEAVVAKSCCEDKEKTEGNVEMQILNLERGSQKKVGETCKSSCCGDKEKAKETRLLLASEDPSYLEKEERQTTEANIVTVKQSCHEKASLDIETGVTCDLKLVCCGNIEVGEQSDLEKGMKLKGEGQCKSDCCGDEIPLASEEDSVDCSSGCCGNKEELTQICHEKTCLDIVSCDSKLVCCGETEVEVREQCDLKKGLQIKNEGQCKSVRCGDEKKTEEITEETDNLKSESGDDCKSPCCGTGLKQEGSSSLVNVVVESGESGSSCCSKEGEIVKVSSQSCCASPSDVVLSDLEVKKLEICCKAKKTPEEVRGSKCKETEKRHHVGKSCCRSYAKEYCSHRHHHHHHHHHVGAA
Test: ATPase assay by phosphate release; F5 electrochromic dye fluorescence
Assay type: biochemical
Details: Cd2+ or Zn2+ activated; dye assay: 5 mM ATP, protein in phosphatidylcholine vesicles, 20 °C

## Nc1ncnc2c1ncn2[C@@H]1O[C@H](COP(=O)(O)OP(=O)(O)OP(=O)(O)O)[C@@H](O)[C@H]1O [ATP]
  ATPase assay by phosphate release; F5 electrochromic dye fluorescence: Addition of ATP caused dropping of fluorescence when added to an assay containing active enzyme

From paper PMC5438989, “Protein Biochemistry and Expression Regulation of Cadmium/Zinc Pumping ATPases in the Hyperaccumulator Plants Arabidopsis halleri and Noccaea caerulescens” (Frontiers in Plant Science, 2017)
